Experiments:
[1] = target: T1, 5-hydroxytryptamine receptor 1A (Homo sapiens, UniProt P08908); assay: Binding affinity was determined towards 5-hydroxytryptamine 1A receptor using [3H]8-OH-DPAT as radioligand
T1 sequence (P08908 whole entry): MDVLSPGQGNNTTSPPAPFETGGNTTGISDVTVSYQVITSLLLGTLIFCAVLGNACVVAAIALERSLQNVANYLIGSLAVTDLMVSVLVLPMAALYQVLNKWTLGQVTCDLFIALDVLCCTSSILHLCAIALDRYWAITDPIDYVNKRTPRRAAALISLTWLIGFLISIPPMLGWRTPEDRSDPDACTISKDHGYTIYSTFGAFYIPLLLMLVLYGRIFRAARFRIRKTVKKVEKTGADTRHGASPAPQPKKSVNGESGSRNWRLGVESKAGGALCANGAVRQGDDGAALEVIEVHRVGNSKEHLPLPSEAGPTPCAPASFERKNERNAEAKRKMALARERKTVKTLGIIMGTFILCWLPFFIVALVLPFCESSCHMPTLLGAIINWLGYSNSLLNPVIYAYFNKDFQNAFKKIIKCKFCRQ

[2] = target: T2, 5-hydroxytryptamine receptor 1A (Homo sapiens) (UniProt P08908); assay: Maximal response as a result of 5-hydroxytryptamine 1A receptor-mediated stimulation of [35S]GTP-gamma-S, binding; assay type: functional
T2 sequence (whole entry): T1 sequence (P08908 whole entry)

[3] = target: T3, Sodium-dependent serotonin transporter (Rattus norvegicus, UniProt P31652); assay: Binding affinity towards serotonin [5-HT] reuptake site labeled with [3H]paroxetine as radioligand
T3 sequence (P31652 whole entry): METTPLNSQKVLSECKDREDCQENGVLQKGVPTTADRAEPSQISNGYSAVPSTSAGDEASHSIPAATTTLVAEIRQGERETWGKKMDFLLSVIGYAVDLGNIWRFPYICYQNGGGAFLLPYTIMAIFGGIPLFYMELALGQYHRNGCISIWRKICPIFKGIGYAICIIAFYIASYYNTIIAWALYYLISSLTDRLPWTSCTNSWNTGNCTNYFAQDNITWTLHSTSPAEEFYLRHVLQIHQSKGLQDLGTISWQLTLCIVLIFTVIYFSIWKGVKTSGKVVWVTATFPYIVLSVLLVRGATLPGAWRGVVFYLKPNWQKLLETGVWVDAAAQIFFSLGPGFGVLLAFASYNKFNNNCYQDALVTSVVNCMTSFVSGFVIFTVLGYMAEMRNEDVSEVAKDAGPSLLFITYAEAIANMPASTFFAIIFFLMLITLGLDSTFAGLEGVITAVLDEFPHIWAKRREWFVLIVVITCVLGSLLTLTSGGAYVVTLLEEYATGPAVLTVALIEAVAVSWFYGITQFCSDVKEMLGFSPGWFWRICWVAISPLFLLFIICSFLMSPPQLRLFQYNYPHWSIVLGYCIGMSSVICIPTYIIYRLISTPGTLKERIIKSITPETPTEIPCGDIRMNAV

[4] = target: Sodium-dependent serotonin transporter (Rattus norvegicus) (UniProt P31652); assay: Inhibitory activity against serotonin [5-HT] reuptake site labeled with [3H]paroxetine as radioligand at 100 nM concentration
Sequence of Sodium-dependent serotonin transporter (Rattus norvegicus) (P31652 whole entry): as above

[5] = target: T2, 5-hydroxytryptamine receptor 1A (Homo sapiens); assay: Inhibitory activity against 5-hydroxytryptamine 1A receptor using [3H]-8-OH-DPAT as radioligand at 100 nM concentration
[6] = target: Sodium-dependent serotonin transporter (Rattus norvegicus) (UniProt P31652); assay: Inhibitory activity against serotonin [5-HT] reuptake site labeled with [3H]-paroxetine as radioligand at 100 nM concentration
[7] = target: T1, 5-hydroxytryptamine receptor 1A; assay: Binding affinity towards 5-HT1A receptor using [3H]8-OH-DPAT as radioligand
[8] = target: Sodium-dependent serotonin transporter (Rattus norvegicus) (UniProt P31652); assay: Inhibitory activity against Serotonin transporter labeled with [3H]-paroxetine as radioligand at 100 nM concentration
[9] = target: T1, 5-hydroxytryptamine receptor 1A; assay: Binding affinity towards 5-hydroxytryptamine 1A receptor using [3H]8-OH-DPAT as radioligand
[10] = target: T2, 5-hydroxytryptamine receptor 1A (Homo sapiens); assay: Maximal response as a result of 5-HT1A receptor-mediated stimulation of [35S]GTP-gamma-S, binding; assay type: functional
[11] = target: T3, Sodium-dependent serotonin transporter; assay: Binding affinity towards Serotonin transporter labeled with [3H]paroxetine as radioligand

SMILES | Ki [1] [µM] | Emax [2] [%] | Ki [3] [µM] | other results
O[C@H](COc1cccc2[nH]ccc12)CN1CCC(c2cc3c(F)cccc3s2)CC1 | 0.00679 | 11.2 | 0.0159 | 
Cc1c(C2CCN(C[C@H](O)COc3cccc4[nH]ccc34)CC2)sc2ccc(F)cc12 | 0.00517 |  |  | inhibition [4]: < 50%
Cc1cc(C)c2cc(C3CCN(C[C@H](O)COc4cccc5[nH]ccc45)CC3)sc2c1 |  |  |  | inhibition [5]: < 50%; inhibition [6]: < 50%
Cc1cc2c(OC[C@@H](O)CN3CCC(c4cc5ccc(F)cc5s4)CC3)cccc2[nH]1 | 0.0154 | 12.6 | 0.0113 | 
Cc1cc2c(OC[C@@H](O)CN3CCC(c4cc5c(C)cccc5s4)CC3)cccc2[nH]1 | 0.0104 | 12.1 | 0.0174 | 
Oc1cccc2cc(C3CCN(C[C@H](O)COc4cccc5[nH]ccc45)CC3)sc12 | 0.00712 | 12.5 | 0.0372 | 
O[C@H](COc1cccc2[nH]ccc12)CN1CCC(c2cc3ccc(F)cc3s2)CC1 | 0.00931 | 11.7 | 0.00199 | 
O[C@H](COc1cccc2[nH]ccc12)CN1CCC(c2cc3ccc(Cl)cc3s2)CC1 | 0.00764 |  | 0.014 | 
Cc1ccc2cc(C3CCN(C[C@H](O)COc4cccc5[nH]c(C)cc45)CC3)sc2c1 | 0.0226 |  |  | inhibition [4]: < 50%
COc1ccc2c(C)c(C3CCN(C[C@H](O)COc4cccc5[nH]ccc45)CC3)sc2c1 | 0.00607 |  |  | inhibition [6]: < 50%
CC(C)Oc1cccc2sc(C3CCN(C[C@H](O)COc4cccc5[nH]ccc45)CC3)cc12 |  |  |  | Ki [7]: 0.00745 µM; inhibition [8]: < 50%
O[C@H](COc1cccc2[nH]ccc12)CN1CCC(c2cc3cc(Cl)ccc3s2)CC1 | 0.00721 | 11 | 0.105 | 
COc1cccc2sc(C3CCN(C[C@H](O)COc4cccc5[nH]ccc45)CC3)cc12 |  | 7.47 | 0.0126 | 
COc1cccc2sc(C3CCN(C[C@H](O)COc4cccc5[nH]c(C)cc45)CC3)cc12 | 0.00483 | 9.05 | 0.0512 | 
O[C@H](COc1cccc2[nH]ccc12)CN1CCC(c2cc3c(Cl)cccc3s2)CC1 | 0.00912 |  | 0.0156 | 
Cc1ccc2cc(C3CCN(C[C@H](O)COc4cccc5[nH]ccc45)CC3)sc2c1 | 0.0127 | 13.8 | 0.0505 | 
Oc1ccc2cc(C3CCN(C[C@H](O)COc4cccc5[nH]ccc45)CC3)sc2c1 | 0.00309 |  |  | inhibition [4]: < 50%
Cc1cc2c(OC[C@@H](O)CN3CCC(c4cc5c(F)cccc5s4)CC3)cccc2[nH]1 | 0.0141 | 11.6 | 0.0342 | 
CC(C)Oc1ccc2cc(C3CCN(C[C@H](O)COc4cccc5[nH]ccc45)CC3)sc2c1 |  |  |  | Ki [9]: 0.0199 µM; inhibition [8]: < 50%
O[C@H](COc1cccc2[nH]ccc12)CN1CCC(c2cc3ccccc3s2)CC1 | 0.0037 | 12.3 | 0.0167 | 
O[C@H](COc1cccc2[nH]ccc12)CN1CCC(c2cc3cc(F)ccc3s2)CC1 | 0.0294 | 13.2 | 0.0118 | 
COc1ccc2cc(C3CCN(C[C@H](O)COc4cccc5[nH]ccc45)CC3)sc2c1 |  |  |  | Ki [9]: 0.00313 µM; Emax [10]: 4.92%; Ki [11]: 0.0687 µM
Cc1cc2c(OC[C@@H](O)CN3CCC(c4cc5cc(F)ccc5s4)CC3)cccc2[nH]1 | 0.0075 | 12.1 | 0.00527 | 
Cc1cccc2sc(C3CCN(C[C@H](O)COc4cccc5[nH]ccc45)CC3)cc12 | 0.0047 | 17 | 0.00369 | 
COc1cccc2cc(C3CCN(C[C@H](O)COc4cccc5[nH]ccc45)CC3)sc12 |  |  |  | Ki [9]: 0.00613 µM; Emax [10]: 9.32%; Ki [11]: 0.0943 µM
COc1ccc2sc(C3CCN(C[C@H](O)COc4cccc5[nH]ccc45)CC3)cc2c1 |  |  |  | Ki [7]: 0.00144 µM; inhibition [8]: < 50%
Cc1c(C2CCN(C[C@H](O)COc3cccc4[nH]ccc34)CC2)sc2ccccc12 | 0.00628 |  | 0.0241 | 
Cc1cc(C)c2cc(C3CCN(C[C@H](O)COc4cccc5[nH]c(C)cc45)CC3)sc2c1 | 0.0278 | 13.4 | 0.0521 | 
